Source: patent publication US7202280B2, “Methods for the treatment and prevention of pancreatitis and for induction of liver regeneration” (priority 2002, dated 2007)

Columns and labels:
[1] = test system: SSAT; assay: Hepatic, pancreatic and renal SSAT activity in syngenic and metallothionein-SSAT mice after analogue; format: in vivo, mouse; details: 24 h before sacrifice
Experimental: (§1) α-methylspermidine, Bis-α-methylspermine and α-methylspermine were administered in saline. […] The data are expressed as means ±S.D. For statistical analysis, the two-tailed Student's t test was used.

[2] = test system: syngenic and metallothionein-SSAT mice; assay: Hepatic, pancreatic and renal polyamine concentration in syngenic and metallothionein-SSAT mice after analogue; format: in vivo, mouse; details: Sg (syngenic) mice, 24 h before sacrifice
Experimental: as §1

[3] = Tg (transgenic) mice, 12.5 mg/kg
[4] = Tg (transgenic) mice, 37.5 mg/kg

CC(N)CCNCCCCNCCC(C)N (stereo not drawn) [bis-α-methylspermine, 1,12-dimethylspermine]
SSAT activity, Kidney ([1]; Sg (syngenic) mice, 12.5 mg/kg): 0.32 ± 0.14 ^++ pmoles/10 min/ tissue wet weight | SSAT activity, Pancreas ([1]; Sg (syngenic) mice, 12.5 mg/kg): 3.38 pmoles/10 min/ tissue wet weight | SSAT activity, Kidney ([1]; Sg (syngenic) mice, 25 mg/kg): 0.58 ± 0.43 ^+ pmoles/10 min/ tissue wet weight | SSAT activity, Pancreas ([1]; Sg (syngenic) mice, 25 mg/kg): 4.23 pmoles/10 min/ tissue wet weight | SSAT activity, Kidney ([1]; Sg (syngenic) mice, 37.5 mg/kg): 0.33 ± 0.14 ^+ pmoles/10 min/ tissue wet weight | SSAT activity, Pancreas ([1]; Sg (syngenic) mice, 37.5 mg/kg): 3.18 pmoles/10 min/ tissue wet weight | SSAT activity, Kidney ([1]; Sg (syngenic) mice, 50 mg/kg): 0.60 ± 0.19 ^+ pmoles/10 min/ tissue wet weight | SSAT activity, Pancreas ([1]; Sg (syngenic) mice, 50 mg/kg): 8.44 pmoles/10 min/ tissue wet weight | SSAT activity, Kidney [1, 3]: 0.72 ± 0.24 pmoles/10 min/ tissue wet weight | SSAT activity, Liver [1, 3]: 6.56 pmoles/10 min/ tissue wet weight | SSAT activity, Pancreas [1, 3]: 34.11 pmoles/10 min/ tissue wet weight | SSAT activity, Kidney ([1]; Tg (transgenic) mice, 25 mg/kg): 1.48 ± 0.92 pmoles/10 min/ tissue wet weight | SSAT activity, Liver ([1]; Tg (transgenic) mice, 25 mg/kg): 9.08 pmoles/10 min/ tissue wet weight | SSAT activity, Pancreas ([1]; Tg (transgenic) mice, 25 mg/kg): 65.20 pmoles/10 min/ tissue wet weight | SSAT activity, Kidney [1, 4]: 8.04 ± 14.36 pmoles/10 min/ tissue wet weight | SSAT activity, Liver [1, 4]: 55.79 pmoles/10 min/ tissue wet weight | SSAT activity, Pancreas [1, 4]: 124.95 pmoles/10 min/ tissue wet weight | SSAT activity, Kidney ([1]; Tg (transgenic) mice, 50 mg/kg): 1.24 ± 0.39 pmoles/10 min/ tissue wet weight | SSAT activity, Liver ([1]; Tg (transgenic) mice, 50 mg/kg): 13.11 pmoles/10 min/ tissue wet weight | SSAT activity, Pancreas ([1]; Tg (transgenic) mice, 50 mg/kg): 62.05 pmoles/10 min/ tissue wet weight | hepatic concentration, Bis-α-Methylspermine ([2]; 12.5 mg/kg): 159.88 pmoles/mg tissue wet weight | hepatic polyamine concentration, N^8-Acetylspermidine ([2]; 12.5 mg/kg): 0.75 pmoles/mg tissue wet weight | hepatic polyamine concentration, Putrescine ([2]; 12.5 mg/kg): 92.42 pmoles/mg tissue wet weight | hepatic polyamine concentration, Spermidine ([2]; 12.5 mg/kg): 927.28 pmoles/mg tissue wet weight | hepatic polyamine concentration, Spermine ([2]; 12.5 mg/kg): 708.04 pmoles/mg tissue wet weight | pancreatic concentration, Bis-α-Methylspermine ([2]; 12.5 mg/kg): 259.30 ± 10.04 pmoles/mg tissue wet weight | pancreatic polyamine concentration, N^8-Acetylspermidine ([2]; 12.5 mg/kg): 60.41 pmoles/mg tissue wet weight | pancreatic polyamine concentration, Putrescine ([2]; 12.5 mg/kg): 298.55 ± 75.14 *^+ pmoles/mg tissue wet weight | pancreatic polyamine concentration, Spermidine ([2]; 12.5 mg/kg): 6575.15 ± 614.21 ^+ pmoles/mg tissue wet weight | pancreatic polyamine concentration, Spermine ([2]; 12.5 mg/kg): 981.28 ± 201.81 ^+ pmoles/mg tissue wet weight | renal concentration, Bis-α-Methylspermine ([2]; 12.5 mg/kg): 259.30 pmoles/mg tissue wet weight | renal polyamine concentration, N^1-Acetylspermidine ([2]; 12.5 mg/kg): 33.17 pmoles/mg tissue wet weight | renal polyamine concentration, N^8-Acetylspermidine ([2]; 12.5 mg/kg): 17.62 ± 6.43 pmoles/mg tissue wet weight | renal polyamine concentration, Putrescine ([2]; 12.5 mg/kg): 142.47 pmoles/mg tissue wet weight | renal polyamine concentration, Spermidine ([2]; 12.5 mg/kg): 246.29 pmoles/mg tissue wet weight | renal polyamine concentration, Spermine ([2]; 12.5 mg/kg): 456.65 pmoles/mg tissue wet weight | hepatic concentration, Bis-α-Methylspermine ([2]; 25 mg/kg): 317.22 pmoles/mg tissue wet weight | hepatic polyamine concentration, N^8-Acetylspermidine ([2]; 25 mg/kg): 2.38 pmoles/mg tissue wet weight | hepatic polyamine concentration, Putrescine ([2]; 25 mg/kg): 73.69 pmoles/mg tissue wet weight | hepatic polyamine concentration, Spermidine ([2]; 25 mg/kg): 879.17 pmoles/mg tissue wet weight | hepatic polyamine concentration, Spermine ([2]; 25 mg/kg): 699.86 pmoles/mg tissue wet weight | pancreatic concentration, Bis-α-Methylspermine ([2]; 25 mg/kg): 343.17 ± 35.11 pmoles/mg tissue wet weight | pancreatic polyamine concentration, Putrescine ([2]; 25 mg/kg): 467.21 ± 419.85^++ pmoles/mg tissue wet weight | pancreatic polyamine concentration, Spermidine ([2]; 25 mg/kg): 5733.90 ± 300.80 ^+ pmoles/mg tissue wet weight | pancreatic polyamine concentration, Spermine ([2]; 25 mg/kg): 528.55 ± 241.57 ^+ pmoles/mg tissue wet weight | renal concentration, Bis-α-Methylspermine ([2]; 25 mg/kg): 343.17 pmoles/mg tissue wet weight | renal polyamine concentration, N^1-Acetylspermidine ([2]; 25 mg/kg): 28.39 pmoles/mg tissue wet weight | renal polyamine concentration, N^8-Acetylspermidine ([2]; 25 mg/kg): 17.70 ± 10.63 pmoles/mg tissue wet weight | renal polyamine concentration, Putrescine ([2]; 25 mg/kg): 87.46 pmoles/mg tissue wet weight | renal polyamine concentration, Spermidine ([2]; 25 mg/kg): 257.13 pmoles/mg tissue wet weight | renal polyamine concentration, Spermine ([2]; 25 mg/kg): 459.99 pmoles/mg tissue wet weight | hepatic concentration, Bis-α-Methylspermine ([2]; 37.5 mg/kg): 283.40 pmoles/mg tissue wet weight | hepatic polyamine concentration, N^1-Acetylspermidine ([2]; 37.5 mg/kg): 14.57 pmoles/mg tissue wet weight | hepatic polyamine concentration, N^8-Acetylspermidine ([2]; 37.5 mg/kg): 2.10 pmoles/mg tissue wet weight | hepatic polyamine concentration, Putrescine ([2]; 37.5 mg/kg): 96.27 pmoles/mg tissue wet weight | hepatic polyamine concentration, Spermidine ([2]; 37.5 mg/kg): 772.68 pmoles/mg tissue wet weight | hepatic polyamine concentration, Spermine ([2]; 37.5 mg/kg): 754.59 pmoles/mg tissue wet weight | pancreatic concentration, Bis-α-Methylspermine ([2]; 37.5 mg/kg): 415.40 ± 92.86 pmoles/mg tissue wet weight | pancreatic polyamine concentration, N^1-Acetylspermidine ([2]; 37.5 mg/kg): 123.67 pmoles/mg tissue wet weight | pancreatic polyamine concentration, N^8-Acetylspermidine ([2]; 37.5 mg/kg): 55.34 pmoles/mg tissue wet weight | pancreatic polyamine concentration, Putrescine ([2]; 37.5 mg/kg): 233.06 ± 45.81 *^+ pmoles/mg tissue wet weight | pancreatic polyamine concentration, Spermidine ([2]; 37.5 mg/kg): 5997.63 ± 24.26 ^+ pmoles/mg tissue wet weight | pancreatic polyamine concentration, Spermine ([2]; 37.5 mg/kg): 708.66 ± 179.23 ^++ pmoles/mg tissue wet weight | renal concentration, Bis-α-Methylspermine ([2]; 37.5 mg/kg): 415.40 pmoles/mg tissue wet weight | renal polyamine concentration, N^1-Acetylspermidine ([2]; 37.5 mg/kg): 28.73 pmoles/mg tissue wet weight | renal polyamine concentration, N^8-Acetylspermidine ([2]; 37.5 mg/kg): 15.95 ± 6.92 pmoles/mg tissue wet weight | renal polyamine concentration, Putrescine ([2]; 37.5 mg/kg): 93.95 pmoles/mg tissue wet weight | renal polyamine concentration, Spermidine ([2]; 37.5 mg/kg): 289.83 pmoles/mg tissue wet weight | renal polyamine concentration, Spermine ([2]; 37.5 mg/kg): 513.58 pmoles/mg tissue wet weight | hepatic concentration, Bis-α-Methylspermine ([2]; 50 mg/kg): 379.77 pmoles/mg tissue wet weight | hepatic polyamine concentration, N^8-Acetylspermidine ([2]; 50 mg/kg): 8.72 pmoles/mg tissue wet weight | hepatic polyamine concentration, Putrescine ([2]; 50 mg/kg): 52.40 pmoles/mg tissue wet weight | hepatic polyamine concentration, Spermidine ([2]; 50 mg/kg): 688.44 pmoles/mg tissue wet weight | hepatic polyamine concentration, Spermine ([2]; 50 mg/kg): 687.71 pmoles/mg tissue wet weight | pancreatic concentration, Bis-α-Methylspermine ([2]; 50 mg/kg): 459.26 ± 18.65 pmoles/mg tissue wet weight
